Test results as given in patent US20190099523A1, “FILM-FORMING COMPOSITION FOR A PH-DEPENDANT SUSTAINED RELEASE OF THE ACTIVE AGENT” (YISSUM RESEARCH DEVELOPMENT COMPANY OF THE HEBREW …, priority 2011, published 2019).

Tests used:
Format in all cases: physicochemical
[1] = CHX release rate from films; conditions: CHX-1 film; phosphate buffer, 37° C., 1-8 hours; FIG. 3
Protocol: Determining the CHX release rate from the films was conducted by first placing the films in 100 ml glass vessels, containing phosphate buffer at pH=5.0 and 6.8 and 50 cpm, at 37° C.
Then, 1 cc samples were taken from the glass vessels at pre-determined intervals (each hour from 1 to 8 hrs).
The released CHX concentration was measured spectrophotometrically at 260 nm (Uvikon 933: Kontron Instruments). The concentration of the CHX was calculated according to a reference curve.
(§1) In a different experiment, the films were kept at a pH 5.0 buffer for 2 hours, then at a pH 6.8 buffer for 2 hours, then at a pH 5.0 buffer for 2 hours and again at a pH 6.8 buffer for 2 hours. Samples were taken at similar intervals.

[2] = Clotrimazole release rate from films; conditions: Clotrimazole-1 film
Protocol: Determining the clotrimazole release rate from the films was conducted by first placing the films in 350 ml glass vessels, containing Trizma base buffer (50 mM) with 0.2% SLS (sodium lauryl sulphate) at pH=5.0 and 6.8 and 50 cpm, at 37° C.
(§2) Then, 1 cc samples were taken from the glass vessels at pre-determined intervals (each hour from 1 to 8 hrs). The released clotrimazole concentration was measured spectrophotometrically at 206 nm (Uvikon 933: Kontron Instruments). The concentration of the CHX was calculated according to a reference curve.
In a different experiment, the films were kept at a pH 5.0 buffer for 2 hours, then kept at a pH 6.8 buffer for 2 hours, then at a pH 5.0 buffer for 2 hours and again at a pH 6.8 buffer for 2 hours. Samples were taken at similar intervals.

[3] = Triclosane release rate from films; conditions: Tric-1 film; Trizma base buffer 50 mM +10% SLS, 37° C.; pH 5.0 / 6.8 / 5.0 / 6.8, 2 hours each; FIG. 6
Protocol: Determining the triclosane release rate from the films was conducted by first placing the films in 100 ml glass vessels, containing Trizma base buffer (50 mM, +10% SLS (sodium lauryl sulphate) at pH=5.0 and 6.8 at 50 rpm, at 37° C.
as §2, with “Then, 2” for “Then, 1”, “released triclosane” for “released clotrimazole”, “at 280” for “at 206”, “the triclosane” for “the CHX”
as §1

CC(=O)O.CC(=O)O.NC(=N\CCCCCC/N=C(N)/N=C(\N)Nc1ccc(Cl)cc1)/N=C(\N)Nc1ccc(Cl)cc1 [CHX, Chlorhexidine-Diacetate]
CHX release rate (as % of the initial amount in film), pH 5.0 compared with pH 6.8 [1]: higher release rate at pH 5.0

Clc1ccccc1C(c1ccccc1)(c1ccccc1)n1ccnc1 [clotrimazole, Clotrimazole]
clotrimazole release rate (as % of the initial amount in film), pH 5.0 compared with pH 6.8 ([2]; Trizma base buffer 50 mM with 0.2% SLS, 37° C., 1-8 hours, FIG. 1): much faster | effect of pH 6.8 on clotrimazole release rate, pH change profile ([2]; pH 5.0 / 6.8 / 5.0 / 6.8, 2 hours each, FIG. 2): retards the rate of release

Oc1cc(Cl)ccc1Oc1ccc(Cl)cc1Cl [triclosane, Triclosane]
triclosane release rate at pH 5.0 compared with pH 6.8, pH change profile [3]: significantly faster
